# Assays:
# [1] = biological target: Coagulation factor X (Homo sapiens, UniProt P00742); assay: Inhibition of human factor 10a
# [2] = test system: Plasma; assay: Anticoagulant activity in human plasma assessed as concentration required to double prothrombin-based clotting time; format: functional
# Chain of Coagulation factor X (P00742 41-179 limits assumed): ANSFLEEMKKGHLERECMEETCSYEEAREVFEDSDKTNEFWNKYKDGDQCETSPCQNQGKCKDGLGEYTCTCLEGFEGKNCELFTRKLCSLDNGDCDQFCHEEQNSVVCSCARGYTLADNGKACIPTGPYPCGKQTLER
# Chain of Coagulation factor X (P00742 235-488 limits assumed): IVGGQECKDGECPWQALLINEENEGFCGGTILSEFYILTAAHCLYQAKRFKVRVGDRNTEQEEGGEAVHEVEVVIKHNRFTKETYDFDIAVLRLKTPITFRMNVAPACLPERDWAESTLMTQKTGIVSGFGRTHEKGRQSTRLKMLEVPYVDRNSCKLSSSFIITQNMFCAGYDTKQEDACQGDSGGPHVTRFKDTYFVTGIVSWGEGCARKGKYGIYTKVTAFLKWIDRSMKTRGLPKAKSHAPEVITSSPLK
IC50 [1] [nM],Structure (SMILES),Activity [2] [µM]
506,COc1ccc(N/C(=N\C(=O)C2CCN(C(=O)c3ccccc3)CC2)N[C@H]2CCCCN(CC(=O)N3CCCC3)C2=O)cc1,48
10,Cc1cc2cc(N/C(=N\C(=O)C3CCN(C(=O)c4ccccc4)CC3)N[C@H]3CCCCN(CC(=O)N4CCCC4)C3=O)ccc2o1,7.5
17,Cc1cc2cc(N/C(=N\C(=O)c3sc(C)nc3C)N[C@H]3CCCCN(CC(=O)N4CCCC4)C3=O)ccc2o1,42
403,COc1ccc(NC(=N[C@H]2CCCCN(CC(=O)N3CCCC3)C2=O)NC(=O)c2ccc(N(C)C)cc2)cc1,
872,COc1ccc(NC(=N[C@H]2CCCCN(CC(=O)N3CCCC3)C2=O)NC(=O)c2cc(OC)cc(OC)c2)cc1,
,Cc1cc2cc(N/C(=N\C(=O)c3ccccc3)N[C@H]3CCCCN(CC(=O)N4CCCC4)C3=O)ccc2o1,48
272,COc1ccc(NC(=N[C@H]2CCCCN(CC(=O)N3CCCC3)C2=O)NC(=O)c2ccc(F)c(F)c2)cc1,
462,Cc1cccc(N/C(=N\C(=O)c2sc(C)nc2C)N[C@H]2CCCCN(CC(=O)N3CCCC3)C2=O)c1,>50
193,COc1ccc(N/C(=N\C(=O)c2cccc(OC)c2)N[C@H]2CCCCN(CC(=O)N3CCCC3)C2=O)cc1,
373,Cc1cccc(NC(=N[C@H]2CCCCN(CC(=O)N3CCCC3)C2=O)NC(=O)c2cccc(F)c2)c1,
222,Cc1cccc(N/C(=N\C(=O)c2ccc(F)cc2)N[C@H]2CCCCN(CC(=O)N3CCCC3)C2=O)c1,
517,Cc1cccc(NC(=N[C@H]2CCCCN(CC(=O)N3CCCC3)C2=O)NC(=O)c2ccc(N(C)C)cc2)c1,
294,COc1ccc(NC(=N[C@H]2CCCCN(CC(=O)N3CCCC3)C2=O)NC(=O)c2ccc(Cl)cc2)cc1,
546,COc1ccc(NC(=N[C@H]2CCCCN(CC(=O)N3CCCC3)C2=O)NC(=O)c2cc(Cl)cc(Cl)c2)cc1,
246,COc1ccc(NC(=N[C@H]2CCCCN(CC(=O)N3CCCC3)C2=O)NC(=O)c2ccccc2)cc1,
271,Cc1cccc(NC(=N[C@H]2CCCCN(CC(=O)N3CCCC3)C2=O)NC(=O)c2ccc(F)c(F)c2)c1,
267,COc1ccc(NC(=N[C@H]2CCCCN(CC(=O)N3CCCC3)C2=O)NC(=O)c2cccc(Cl)c2)cc1,
400,COc1ccc(C(=O)NC(=N[C@H]2CCCCN(CC(=O)N3CCCC3)C2=O)Nc2cccc(C)c2)cc1OC,

IC50 [1] [nM],Structure (SMILES),Activity [2] [µM]
245,Cc1cccc(NC(=N[C@H]2CCCCN(CC(=O)N3CCCC3)C2=O)NC(=O)c2ccccc2)c1,
628,Cc1cccc(N/C(=N\C(=O)c2ccno2)N[C@H]2CCCCN(CC(=O)N3CCCC3)C2=O)c1,50
198,Cc1cccc(N/C(=N\C(=O)c2ccc(Cl)cc2)N[C@H]2CCCCN(CC(=O)N3CCCC3)C2=O)c1,
1160,COc1cc(OC)cc(C(=O)/N=C(\Nc2cccc(C)c2)N[C@H]2CCCCN(CC(=O)N3CCCC3)C2=O)c1,
276,COc1cccc(C(=O)NC(=N[C@H]2CCCCN(CC(=O)N3CCCC3)C2=O)Nc2cccc(C)c2)c1,
14,Cc1cc2cc(N/C(=N\C(=O)c3ccno3)N[C@H]3CCCCN(CC(=O)N4CCCC4)C3=O)ccc2o1,17.7
1070,Cc1cccc(N/C(=N\C(=O)C2CCN(C(=O)c3ccccc3)CC2)N[C@H]2CCCCN(CC(=O)N3CCCC3)C2=O)c1,>50
386,COc1ccc(N/C(=N\C(=O)c2sc(C)nc2C)N[C@H]2CCCCN(CC(=O)N3CCCC3)C2=O)cc1,>50
227,COc1ccc(N/C(=N\C(=O)c2ccc(OC)cc2)N[C@H]2CCCCN(CC(=O)N3CCCC3)C2=O)cc1,
835,Cc1cccc(NC(=N[C@H]2CCCCN(CC(=O)N3CCCC3)C2=O)NC(=O)c2cc(Cl)cc(Cl)c2)c1,
208,COc1ccc(NC(=N[C@H]2CCCCN(CC(=O)N3CCCC3)C2=O)NC(=O)c2cc(F)cc(F)c2)cc1,
380,COc1ccc(N/C(=N\C(=O)c2ccno2)N[C@H]2CCCCN(CC(=O)N3CCCC3)C2=O)cc1,45
371,Cc1cccc(NC(=N[C@H]2CCCCN(CC(=O)N3CCCC3)C2=O)NC(=O)c2cccc(Cl)c2)c1,
709,COc1ccc(C(=O)NC(=N[C@H]2CCCCN(CC(=O)N3CCCC3)C2=O)Nc2cccc(C)c2)cc1,
256,COc1ccc(NC(=N[C@H]2CCCCN(CC(=O)N3CCCC3)C2=O)NC(=O)c2cccc(F)c2)cc1,
368,COc1ccc(N/C(=N\C(=O)c2ccc(F)cc2)N[C@H]2CCCCN(CC(=O)N3CCCC3)C2=O)cc1,
396,Cc1cccc(NC(=N[C@H]2CCCCN(CC(=O)N3CCCC3)C2=O)NC(=O)c2cc(F)cc(F)c2)c1,
494,COc1ccc(N/C(=N\C(=O)c2ccc(OC)c(OC)c2)N[C@H]2CCCCN(CC(=O)N3CCCC3)C2=O)cc1,

# Source: ChEMBL document CHEMBL1155925, “Synthesis and evaluation of acylguanidine FXa inhibitors” (Bioorg Med Chem Lett, 2008)
